Common to all, as to format: cell-based
Test [1] concerns Mycobacterium tuberculosis (Mtb-GFP; H37Rv pMSP12::GFP). Put plainly: microbe, parasite or virus in culture. Conditions: Mycobacterium tuberculosis, H37RV, 168 h, pH 6.8, read-out: Mtb Cho MITC95.
Test [2] has the same test system. The experiment in a line: microbe, parasite or virus in culture. Conditions: Mycobacterium tuberculosis, H37RV, 168 h, pH 6.8, read-out: Mtb Glu MITC95.
For test [3], the system named is mitochondrial protein synthesis in HepG2 cells. Put plainly: Mitochondrial protein synthesis assay. As to conditions: Homo sapiens, 96 h, 4 days, COX-1 relative to SDH-A / Janus Green, In Cell ELISA, read-out: MPS IC50. On the technique in general: An ELISA detects its analyte on a solid surface through an enzyme-linked reagent.

SMILES strings stand for the structures. ≈ marks a conversion by molar mass, not a printed value. Read-outs that look alike come from different tables or passages of the source.

The values below come from patent US12365656B2, “Oxazolidinone compounds and methods of use thereof as antibacterial agents” (priority 2019, dated 2025).

The term IC50 denotes the midpoint of a concentration-inhibition curve.

`O=C1O[C@@H](CO)CN1c1ccc(-c2ccc(S(=O)(=O)C3CC3)cc2)cc1` [Example 32, (5R)-3-[4′-(cyclopropanesulfonyl)[1,1′-biphenyl]-4-yl]-5-(hydroxymethyl)-1,3-oxazolidin-2-one]: the MIC in test [1] and in test [2] was 3.1 µM (≈ 1.16 µg/mL) each time. The concentration for half-maximal inhibition (IC50) in test [3] came out at 30 µM.

On to `O=C1O[C@@H](CO)CN1c1ccc(C2(F)CCS(=O)(=O)CC2)cc1` [Example 36, 4-fluoro-4-{4-[(5R)-5-(hydroxymethyl)-2-oxo-1,3-oxazolidin-3-yl]phenyl}-1λ^6-thiane-1,1-dione], for which the MIC amounted to 38 µM (≈ 13 µg/mL) in test [1] and 50 µM (≈ 17.2 µg/mL) in test [2]. Moreover, the IC50 in test [3] is above 50 µM.

As to `O=C1O[C@@H](CO)CN1c1cc(F)c(C2(F)CCS(=O)(=O)CC2)c(Cl)c1` [Example 30, 4-{2-chloro-6-fluoro-4-[(5R)-5-(hydroxymethyl)-2-oxo-1,3-oxazolidin-3-yl]phenyl}-4-fluoro-1λ^6-thiane-1,1-dione], the MIC is 13 µM (≈ 5.15 µg/mL) in test [1] and 6.3 µM (≈ 2.49 µg/mL) in test [2]. Further, in test [3], the IC50 was above 100 µM.

Regarding `O=C1O[C@@H](CO)CN1c1ccc(-c2ccc(S(=O)(=O)C3COC3)cc2)cc1` [Example 33, (5R)-5-(hydroxymethyl)-3-[4′-(oxetane-3-sulfonyl)[1,1′-biphenyl]-4-yl]-1,3-oxazolidin-2-one], the MIC in test [1] came to 2.3 µM (≈ 0.896 µg/mL); in test [2] it was 3.1 µM (≈ 1.21 µg/mL). Also, in test [3], the IC50 came to 9.7 µM.

As to `O=C1O[C@@H](CO)CN1c1ccc(C2(F)CCS(=O)(=O)CC2)c(Cl)c1` [Example 31, 4-{2-chloro-4-[(5R)-5-(hydroxymethyl)-2-oxo-1,3-oxazolidin-3-yl]phenyl}-4-fluoro-1λ^6-thiane-1,1-dione], the MIC in test [1] and in test [2] was 13 µM (≈ 4.91 µg/mL) in each case. Also, the IC50 in test [3] is above 100 µM.

`O=C1O[C@@H](CO)CN1c1cc(F)c(C2(F)CCS(=O)(=O)CC2)c(F)c1` [Example 2, (5R)-3-[3,5-difluoro-4-(4-fluoro-1,1-dioxidotetrahydro-2H-thiopyran-4-yl)phenyl]-5-(hydroxymethyl)-1,3-oxazolidin-2-one]: the values for the MIC in test [1] and in test [2] were 2.2 µM (≈ 0.835 µg/mL) and 1.9 µM (≈ 0.721 µg/mL), respectively. In test [3], the IC50 is above 100 µM.

With `CC1(c2c(F)cc(N3C[C@H](CO)OC3=O)cc2F)CCS(=O)(=O)CC1` [Example 41, 4-{2,6-difluoro-4-[(5R)-5-(hydroxymethyl)-2-oxo-1,3-oxazolidin-3-yl]phenyl}-4-methyl-lλ^6-thiane-1,1-dione], the MIC was found to be 9.4 µM (≈ 3.53 µg/mL) in test [1] and 6.3 µM (≈ 2.36 µg/mL) in test [2]. In test [3], the IC50 was above 100 µM.

For the compound `Cc1cc(N2C[C@H](CO)OC2=O)ccc1C1(F)CCS(=O)(=O)CC1` [Example 35, 4-fluoro-4-{4-[(5R)-5-(hydroxymethyl)-2-oxo-1,3-oxazolidin-3-yl]-2-methylphenyl}-1λ^6-thiane-1,1-dione], the MIC worked out at 50 µM (≈ 17.9 µg/mL) in test [1] and 25 µM (≈ 8.94 µg/mL) in test [2]. In addition, the IC50 in test [3] was above 100 µM.

For `Cn1cc(-c2ccc(N3C[C@H](CO)OC3=O)cc2F)ccc1=O` [Example 26, 5-{2-fluoro-4-[(5R)-5-(hydroxymethyl)-2-oxo-1,3-oxazolidin-3-yl]phenyl}-1-methylpyridin-2(1H)-one], the MIC in test [1] and in test [2] was 6.3 µM (≈ 2.01 µg/mL) in each case. The IC50 in test [3] came to 28 µM.

Turning to `CC(=O)NC[C@H]1CN(c2ccc(N3CCOCC3)c(F)c2)C(=O)O1` [linezolid, reference compound], the MIC turned out to be 3.14 µM (≈ 1.06 µg/mL) in test [1] and 4.58 µM (≈ 1.55 µg/mL) in test [2]. In addition, the IC50 in test [3] was determined as 8 µM.

Regarding `CN=S1(=O)CCN(c2c(F)cc(N3C[C@H](CO)OC3=O)cc2F)CC1` [Example 27, 4-{2,6-difluoro-4-[(5R)-5-(hydroxymethyl)-2-oxo-1,3-oxazolidin-3-yl]phenyl}-1-(methylimino)-1λ^6-thiomorpholin-1-one], the MIC in test [1] and in test [2] was 6.3 µM (≈ 2.37 µg/mL) in each case. The IC50 in test [3] is above 100 µM.

For the compound `O=C1O[C@@H](CO)CN1c1cc(F)c(N2CCS(=O)(=O)CC2)c(F)c1` [Example 22, 4-{2,6-difluoro-4-[(5R)-5-(hydroxymethyl)-2-oxo-1,3-oxazolidin-3-yl]phenyl}-1λ^6-thiomorpholine-1,1-dione], the MIC in test [1] was 6.3 µM (≈ 2.28 µg/mL); in test [2], 3.9 µM (≈ 1.41 µg/mL). For the same compound, in test [3], the IC50 was above 100 µM.

In the case of `O=C1O[C@@H](CO)CN1c1ccc(C2(F)CCS(=O)(=O)CC2)c(F)c1` [Example 24, 4-fluoro-4-[2-fluoro-4-[(5R)-5-(hydroxymethyl)-2-oxo-1,3-oxazolidin-3-yl]phenyl}-1λ^6-thiane-1,1-dione], the MIC in test [1] and in test [2] was 6.3 µM (≈ 2.28 µg/mL) throughout. For the same compound, the IC50 in test [3] was above 50 µM.

Regarding `O=C1O[C@@H](CO)CN1c1cc(F)c(C2=CCS(=O)(=O)CC2)c(F)c1` [Example 15, 4-{2,6-difluoro-4-[(5R)-5-(hydroxymethyl)-2-oxo-1,3-oxazolidin-3-yl]phenyl}-3,6-dihydro-1λ6-thiopyran-1,1(2H)-dione], the MIC in test [1] and in test [2] was 1.6 µM (≈ 0.575 µg/mL) in each case. In addition, in test [3], the half-inhibitory concentration (IC50) is above 100 µM.

`CN1CC(C)(S(=O)(=O)c2ccc(-c3ccc(N4C[C@H](CO)OC4=O)cc3)cc2)C1` [Example 23, (5R)-3-[4'-(1,3-dimethylazetidine-3-sulfonyl)[1,1'-biphenyl]-4-yl]-5-(hydroxymethyl)-1,3-oxazolidin-2-one]: the MIC in test [1] came out at 3.1 µM (≈ 1.29 µg/mL); in test [2] it was 1.6 µM (≈ 0.666 µg/mL). The IC50 in test [3] was above 100 µM.

For `O=C1O[C@@H](CO)CN1c1cc(F)c(C2(F)CCS(=O)(=O)CC2)c(F)c1F` [Example 25, 4-fluoro-4-{2,3,6-trifluoro-4-[(5R)-5-(hydroxymethyl)-2-oxo-1,3-oxazolidin-3-yl]phenyl}-1λ^6-thiane-1,1-dione], the MIC in test [1] and in test [2] was 6.3 µM (≈ 2.5 µg/mL) throughout. Besides, the IC50 in test [3] was above 100 µM.

Consider `N#CC1(c2c(F)cc(N3C[C@H](CO)OC3=O)cc2F)CCS(=O)(=O)CC1` [Example 16, 4-{2,6-difluoro-4-[(5R)-5-(hydroxymethyl)-2-oxo-1,3-oxazolidin-3-yl]phenyl}-1,1-dioxo-1λ6-thiane-4-carbonitrile], for which the MIC in test [1] and in test [2] was 1.6 µM (≈ 0.618 µg/mL) throughout. The half-maximal inhibitory concentration (IC50) in test [3] is 50 µM.

For `CN1CC(S(=O)(=O)c2ccc(-c3ccc(N4C[C@H](CO)OC4=O)cc3F)cc2)C1` [Example 20, (5R)-3-[2-fluoro-4′-(1-methylazetidine-3-sulfonyl)[1,1′-biphenyl]-4-yl]-5-(hydroxymethyl)-1,3-oxazolidin-2-one], the MIC in test [1] and in test [2] was 0.39 µM (≈ 0.164 µg/mL) throughout. Further, the IC50 in test [3] stood at 7.4 µM.

Consider `O=C1O[C@@H](CO)CN1c1ccc(-c2ccn3ncnc3c2)c(F)c1` [Example 8, (5R)-3-[3-fluoro-4-([1,2,4]triazolo[1,5-a]pyridin-7-yl)phenyl]-5-(hydroxymethyl)-1,3-oxazolidin-2-one], for which the MIC is 1.8 µM (≈ 0.591 µg/mL) in test [1] and 1.5 µM (≈ 0.492 µg/mL) in test [2]. Besides, the IC50 in test [3] amounted to 3.7 µM.

Turning to `CN1CC(C)(S(=O)(=O)c2ccc(-c3ccc(N4C[C@H](CO)OC4=O)cc3F)cc2)C1` [Example 14, (5R)-3-[4'-(1,3-dimethylazetidine-3-sulfonyl)-2-fluoro[1,1′-biphenyl]-4-yl]-5-(hydroxymethyl)-1,3-oxazolidin-2-one], the MIC in test [1] and in test [2] was 0.78 µM (≈ 0.339 µg/mL) throughout. The IC50 in test [3] worked out at 23 µM.

For `O=C1O[C@@H](CO)CN1c1ccc(-c2ccc(S(=O)(=O)N3CCC3)cc2)c(F)c1` [Example 38, (5R)-3-[4′-(azetidine-1-sulfonyl)-2-fluoro[1,1′-biphenyl]-4-yl]-5-(hydroxymethyl)-1,3-oxazolidin-2-one], the MIC in test [1] and in test [2] was 6.3 µM (≈ 2.56 µg/mL) each time. Also, the IC50 in test [3] is above 13 µM.

For `O=C1O[C@@H](CO)CN1c1cc(F)c(N2CC3CS(=O)(=O)CC3C2)c(F)c1` (stereo partly drawn) [Example 17, 5-{2,6-difluoro-4-[(5R)-5-(hydroxymethyl)-2-oxo-1,3-oxazolidin-3-yl]phenyl}hexahydro-2λ6-thieno[3,4-c]pyrrole-2,2(1H)-dione], the MIC in test [1] came to 3.1 µM (≈ 1.2 µg/mL); in test [2], 2.3 µM (≈ 0.893 µg/mL). Also, in test [3], the IC50 is above 100 µM.

Turning to `CS(=O)(=O)Cc1ccc(-c2ccc(N3C[C@H](CO)OC3=O)cc2F)cc1` [Example 39], the MIC amounted to 1.2 µM (≈ 0.455 µg/mL) in test [1] and 1.6 µM (≈ 0.607 µg/mL) in test [2]. In addition, the IC50 in test [3] was determined as 1.5 µM.

As to `O=C1O[C@@H](CO)CN1c1ccc(-c2ccc(OCCO)cc2)c(F)c1` [Example 12, (5R)-3-[2-fluoro-4'-(2-hydroxyethoxy)[1,1′-biphenyl]-4-yl]-5-(hydroxymethyl)-1,3-oxazolidin-2-one], the values for the MIC in test [1] and in test [2] were 0.39 µM (≈ 0.135 µg/mL) and 0.78 µM (≈ 0.271 µg/mL), respectively. Further, the IC50 in test [3] was 19 µM.

`O=C1O[C@@H](CO)CN1c1cc(F)c(N2CCN(C(=O)C3CC3)C3CC32)c(F)c1` (stereo partly drawn) [Example 21, (5R)-3-{4-[5-(cyclopropanecarbonyl)-2,5-diazabicyclo[4.1.0]heptan-2-yl]-3,5-difluorophenyl}-5-(hydroxymethyl)-1,3-oxazolidin-2-one]: the MIC in test [1] is 3.1 µM (≈ 1.22 µg/mL); in test [2] it was 6.3 µM (≈ 2.48 µg/mL). Also, the 50% inhibitory concentration (IC50) in test [3] is above 13 µM.

As to `O=C1O[C@@H](CO)CN1c1ccc(C2(F)CCS(=O)(=O)CC2)c(C(F)(F)F)c1` [Example 37, 4-fluoro-4-{4-[(5R)-5-(hydroxymethyl)-2-oxo-1,3-oxazolidin-3-yl]-2-(trifluoromethyl)phenyl}-1λ^6-thiane-1,1-dione], the MIC in test [1] and in test [2] was 50 µM (≈ 20.6 µg/mL) in each case. Also, the half-inhibitory concentration (IC50) in test [3] was above 100 µM.

As for `CC(=O)N1CCN(c2c(F)cc(N3C[C@H](CO)OC3=O)cc2F)C2CC21` (stereo partly drawn) [Example 18, (5R)-3-[4-(5-acetyl-2,5-diazabicyclo[4.1.0]heptan-2-yl)-3,5-difluorophenyl]-5-(hydroxymethyl)-1,3-oxazolidin-2-one], the MIC in test [1] and in test [2] was 3.1 µM (≈ 1.14 µg/mL) throughout. The IC50 in test [3] was above 100 µM.
